# Measured values as given in patent EP4740932A2, “COSMETIC COMPOSITION FOR SKIN IMPROVEMENT AND PHARMACEUTICAL COMPOSITION FOR PREVENTING OR TREATING SKIN DAMAGE, EACH CONTAINING HONOKIOL AND POLYOL” (Cosmax, Inc., priority 2023, dated 2025).
# Key:
# [1] = test system: MMP-1; assay: qRT-PCR of collagen degradation enzyme factor in UVB-irradiated Hs68 cells; type: cell-based; conditions: Hs68, UVB 25 mJ/cm^2, 1 ppm, 24 hours; relative to UVB non-irradiated group
# Method: It was determined whether honokiol increases the amount of skin collagen. Specifically, Hs68 cells, which are skin dermal layer cells, were irradiated with 25 mJ/cm^2 intensity of UVB (ultraviolet B), and then treated with RA (retinoic acid), EGCG (epigallocatechin gallate), retinol, and honokiol at a concentration of 1 ppm for 24 hours, respectively.
# The mRNA expression of the collagen production promotion factor COL1A1 and the collagen degradation enzyme factor MMP-1 gene was measured through qRT-PCR analysis and converted based on the actin expression, and the relative values for the expression of the UVB non-irradiated group were calculated and compared.
# The collagen production amount was compared in the same manner as in Example 2-1, and the treatment sample was changed to a honokiol solution dissolved in RA (retinoic acid), retinol, DMSO (dimethyl sulfoxide), a honokiol solution dissolved in BG, and a honokiol solution dissolved in PG (propylene glycol).
# In Example 2-1, a 5% (w/w) solution was prepared as a sample to confirm stability in a high concentration dissolved state, whereas a honokiol solution for treating cells was prepared at a concentration of 1 mg/ml, and the honokiol alone component treated in cells was performed to be 1 ppm.
# [2] = test system: AQP3; assay: qRT-PCR of moisture migration factor in HaCaT cells; type: cell-based; conditions: 24 hours
# Method: (§1) Specifically, HaCaT cells, which are skin stratum corneum cells, were treated with retinol and honokiol at 0.1 and 1 ppm, respectively, for 24 hours.
# (§2) The mRNA expression levels of the AQP3 gene, which is a factor related to the migration of moisture present in the dermis, and the HAS3 gene, which is a factor related to hyaluronic acid synthase, were then measured through qRT-PCR analysis, and the β-actin expression levels were converted and compared.
# [3] = Solvent selection: dissolving 5 wt % honokiol in water, BG, MCT; type: physicochemical
# From the text: Honokiol is a poorly soluble component and has low solubility in water, so it has the property of being dissolved in an organic solvent. To stabilize the cosmetic composition including honokiol at a high concentration of 5 wt %, three types of solvents corresponding to water, Butylene Glycol (BG), and medium-chain triglyceride (MCT) oil were applied to confirm the result.
# [4] = DPPH test of antioxidant activity; type: biochemical; conditions: 10 and 100 ppm, room temperature, 30 minutes; compared to retinol
# Method: It was confirmed by the DPPH test whether honokiol exerts antioxidant activity.
# Specifically, the DPPH solution was treated with Ascorbic Acid (AA), retinol, and honokiol at 10 and 100 ppm, respectively, at room temperature for 30 minutes. The absorbance was measured at 517 nm to show antioxidant activity as the ratio of the decrease in absorbance to the control. At this time, ascorbic acid, an antioxidant, was used as a control group for determining the absorbance reduction ratio.
# [5] = test system: filaggrin (FLG); assay: qRT-PCR of filaggrin in HaCaT cells; type: cell-based; conditions: 24 hours
# Method: as §1
# (§3) Subsequently, through qRT-PCR analysis, the mRNA expression of filaggrin (FLG), a moisturizing component-related factor present in keratinocytes constituting the skin barrier, and the CLDN1 gene, a factor related to the binding of the skin barrier, were measured and compared based on the β-actin expression level.
# [6] = test system: COL1A1; assay: qRT-PCR of collagen production promotion factor in UVB-irradiated Hs68 cells; type: cell-based; conditions: Hs68, UVB 25 mJ/cm^2, 1 ppm, 24 hours; relative to UVB non-irradiated group; compared with RA, EGCG, retinol
# [7] = test system: HAS3; assay: qRT-PCR of hyaluronic acid synthase factor in HaCaT cells; type: cell-based; conditions: 24 hours
# Method: as §1, §2
# [8] = test system: TSLP; assay: qRT-PCR of inflammation-related factor in Poly I:C/IL-4 stimulated HaCaT cells; type: cell-based; conditions: 10 µg/ml Poly I:C and 10 µg/ml IL-4, 1 ppm, 4 hours
# Method: Specifically, HaCaT cells, which are skin stratum corneum cells, were treated (+) with 10 µg/ml of Poly I:C and 10 µg/ml of IL-4 protein, which are inflammatory response inducing substances, and prepared as an experimental group in which 1 µM (Dexa) of dexamethasone (DEXA), retinol, and honokiol, which are […], were treated for 4 hours at 0.1 and 1 ppm, respectively. The untreated group (-) was prepared as a negative control.
# Afterwards, the expression level of the TSLP gene, an inflammation-related factor expressed in skin keratinocytes, was measured through qRT-PCR analysis, converted based on the expression level of ectin, and compared.
# [9] = test system: Hs68 cells; assay: MTT cytotoxicity evaluation on skin dermis cells; type: cell-based; conditions: Hs68 (skin dermis cells), 0.1, 0.5, 1 and 5 ppm, 24 hours, at concentrations of 5 ppm or less
# Method: (§4) Toxicity assessments of honokiol on skin epidermis and dermal cells were performed. Specifically, HaCaT cells, which are skin keratinocytes, and Hs68 cells, which are skin dermis cells, were cultured in a 96 well plate at a concentration of 2 X […] and cultured in a medium including FBS ([…]) and antibiotics (Antibiotic antibiotic) at 37°C and 5% CO2 for 24 hours, and then further cultured by treating the medium including only antibiotics with 0.1, 0.5, 1, and 5 ppm for each concentration on the next day. After 24 hours, the toxic concentration of the honokiol material on skin cells was determined by replacing it with medium containing MTT tetrazolum (Sigma-aldrich, St. Lous, USA) and by reacting at 37°C for 4 hours to evaluate the cellular metabolic activity.
# [10] = test system: CLDN1; assay: qRT-PCR of skin barrier binding factor in HaCaT cells; type: cell-based; conditions: 1 ppm, 24 hours, versus control group
# Method: as §1, §3
# [11] = test system: ELN1; assay: qRT-PCR of elastin production factor in UVB-irradiated Hs68 cells; type: cell-based; conditions: Hs68, UVB 25 mJ/cm^2, 1 ppm, 24 hours; compared with RA, EGCG, retinol
# Method: (§5) Specifically, Hs68 cells, which are skin dermal layer cells, were irradiated with UVB (ultraviolet-B) having a 25 mJ/cm^2 intensity, and then treated with RA, EGCG, retinol, and honokiol, 1 ppm each, for 24 hours.
# (§6) The mRNA expression levels of ELN1, a factor associated with elastin production promotion, and FBN, a factor associated with fibronectin production promotion, were then measured using qRT-PCR analysis, and the levels of actin expression from the UVB non-irradiated group were converted and compared.
# [12] = HPLC potency analysis after storage; type: physicochemical; conditions: harsh environments of low temperature, high temperature, and cycle
# Method: Honokiol was dissolved in BG and MCT at a concentration of 5 wt %, and high-performance liquid chromatography (HPLC) was performed to observe whether precipitates were formed at 4°C, 25°C, 45°C, 50°C, and sunlight, and to analyze potency.
# [13] = test system: HaCaT cells; assay: MTT cytotoxicity evaluation on skin keratinocytes; type: cell-based; conditions: HaCaT (skin stratum corneum cells), 0.1, 0.5, 1 and 5 ppm, 24 hours, at concentrations of 5 ppm or less
# Method: as §4
# [14] = test system: FBN; assay: qRT-PCR of fibronectin production factor in UVB-irradiated Hs68 cells; type: cell-based; conditions: Hs68, UVB 25 mJ/cm^2, 1 ppm, 24 hours; compared with RA, EGCG, retinol
# Method: as §5, §6
# [15] = 0.1 and 1 ppm, overall versus retinol
structure (smiles),measurement,setting,value
C=CCc1ccc(O)c(-c2ccc(O)c(CC=C)c2)c1 [honokiol],MMP-1 mRNA expression (collagen degrading enzyme production),[1],lower amount of collagen degrading enzyme production than the UVB-only irradiation group
same,AQP3 mRNA expression level,[2]; [15],higher overall expression than the retinol-treated group
same,AQP3 mRNA expression level,[2]; 1 ppm,significantly increased the expression of related genes
same,solubility,[3]; 5 wt % honokiol in BG,well soluble
same,solubility,[3]; 5 wt % honokiol in MCT,well soluble
same,solubility,[3]; 5 wt % honokiol in water,low
same,"antioxidant activity (DPPH, decrease in absorbance at 517 nm)",[4],remarkably high antioxidant activity compared to retinol
same,FLG mRNA expression,[5]; [15],higher expression than the retinol-treated group overall
same,FLG mRNA expression,[5]; 1 ppm,significantly increased the expression of the FLG gene
same,COL1A1 mRNA expression (collagen production),[6],"higher collagen production than the UVB-only irradiated group, and showed the highest collagen production among all UVB irradiated groups"
same,HAS3 mRNA expression level,[7]; [15],higher overall expression than the retinol-treated group
same,HAS3 mRNA expression level,[7]; 1 ppm,significantly increased the expression of related genes
same,TSLP gene expression amount,[8],significantly reducing the expression amount of the TSLP gene
same,cytotoxicity,[9],did not cause cytotoxicity
same,CLDN1 mRNA expression level,[10],significantly increased the expression level of the CLDN1 gene compared to that of the control group
same,ELN1 mRNA expression level,[11],highest expression level among the UV-irradiated groups but also showed a higher expression level than the UV-unirradiated group
same,potency maintenance (stability of the material),[12],maintained its potency well
same,cytotoxicity,[13],did not cause cytotoxicity
same,FBN mRNA expression level,[14],highest expression level among the UV-irradiated groups but also showed a higher expression level than the UV-unirradiated group
